These results are taken from patent US20260159512A1, “BCAT2 INHIBITORS” (AGIOS PHARMACEUTICALS, INC., priority 2021, published 2026).

In experiment [1] the target is T1, BCAT2 (Homo sapiens, UniProt O15382).
T1 sequence (O15382 28-392): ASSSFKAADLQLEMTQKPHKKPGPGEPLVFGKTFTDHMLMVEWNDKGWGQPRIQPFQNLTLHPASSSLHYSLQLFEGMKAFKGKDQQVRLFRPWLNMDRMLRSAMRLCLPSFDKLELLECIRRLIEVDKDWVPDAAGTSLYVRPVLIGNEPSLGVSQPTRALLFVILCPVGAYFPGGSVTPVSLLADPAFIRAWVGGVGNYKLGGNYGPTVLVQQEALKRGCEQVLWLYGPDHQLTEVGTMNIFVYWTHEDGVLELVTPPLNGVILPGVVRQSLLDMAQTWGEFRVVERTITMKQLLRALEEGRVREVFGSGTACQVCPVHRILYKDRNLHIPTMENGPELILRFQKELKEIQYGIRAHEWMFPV
In words: BCAT2 in vitro cell inhibition using engineered A549 cells (KMV cell assay, 13C6-KMV by LC-MS/MS). Particulars: average where tested multiple times. On the set-up: The result was an engineered A549 cell line that expressed endogenous BCAT2; endogenous in cells; host or cells: A549 cells with MUT and BCAT1 knocked out by CRISPR/CAS9; key to BCAT2 Cell Inhibition: A: less than or equal to 0.100 μM; B: greater than 0.100 and less than or equal to 0.500 μM; C: greater than 0.500 and less than or equal to 1.000 μM; d: greater than 1.000 μM; E: no fit. Format: cell-based.

For experiment [2], the target named is T1, BCAT2. In words: BCAT2 in vitro enzyme inhibition assay (resazurin/diaphorase-coupled fluorescence). Format: biochemical. To be noted: average where tested multiple times. The procedure, abridged: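 Coupled fluorescence readout: glutamate formed from L-leucine/α-ketoglutarate transamination drives GDH/NAD/diaphorase reduction of resazurin (Ex 540/Em 590). Human BCAT2 was first exposed 1 h at room temperature to compound, top final 100 μM in 3-fold, 10-point series; substrate reaction ran 1 h before SDS quench, in technical duplicate with DMSO max and enzyme-free min controls.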

On to `CC(C)Cc1nc2cnc(-c3ccccn3)cc2n1[C@@H]1C[C@H](NC(=O)c2ncc(Cl)s2)CN(C)C1` [Example 263, 5-chloro-N-((3S,5R)-5-(2-isobutyl-6-(pyridin-2-yl)-1H-imidazo[4,5-c]pyridin-1-yl)-1-methylpiperidin-3-yl)thiazole-2-carboxamide], for which the “BCAT2 Cell Inhibition” value on BCAT2 [1] is given as “E”. The compound also returned an IC50 against BCAT2 [2] of more than 1 µM.
With `CN1C[C@@H](NC(=O)c2ccc(Cl)s2)C[C@@H](n2c(-c3ccccc3F)nc3cnc(-c4nc[nH]n4)cc32)C1` [Example 265, 5-chloro-N-((3S,5R)-5-(2-(2-fluorophenyl)-6-(1H-1,2,4-triazol-3-yl)-1H-imidazo[4,5-c]pyridin-1-yl)-1-methylpiperidin-3-yl)thiophene-2-carboxamide], the IC50 at BCAT2 [1] is more than 1 µM; against BCAT2 [2], 0.1 to 0.5 µM.
On to `O=C(N[C@H]1CCC[C@@H](n2c(-c3ccccc3F)nc3cnc(O[C@@H]4CCOC4)cc32)C1)c1ncc(Cl)s1` [Example 266, 5-chloro-N-((1S,3R)-3-(2-(2-fluorophenyl)-6-(((R)-tetrahydrofuran-3-yl)oxy)-1H-imidazo[4,5-c]pyridin-1-yl)cyclohexyl)thiazole-2-carboxamide], for which the “BCAT2 Cell Inhibition” value on BCAT2 [1] was “E”. Besides, the IC50 against BCAT2 [2] lay in the range of 0.1 to 0.5 µM.
For `Nc1cc2c(cn1)nc(-c1ccccc1F)n2[C@H]1C[C@H](O)C[C@@H](NC(=O)c2ncc(Cl)s2)C1` [Example 269, N-((1S,3R,5R)-3-(6-amino-2-(2-fluorophenyl)-1H-imidazo[4,5-c]pyridin-1-yl)-5-hydroxycyclohexyl)-5-chlorothiazole-2-carboxamide], the half-maximal inhibitory concentration (IC50) on BCAT2 [1] and against BCAT2 [2] was more than 1 µM in each case.
For the compound `O=C(N[C@@H]1C[C@@H](O)C[C@H](n2c(-c3ccccc3F)nc3cnccc32)C1)c1ncc(Cl)s1` [Example 271, 5-chloro-N-((1S,3R,5R)-3-(2-(2-fluorophenyl)-1H-imidazo[4,5-c]pyridin-1-yl)-5-hydroxycyclohexyl)thiazole-2-carboxamide], the “BCAT2 Cell Inhibition” value at BCAT2 [1] is on record as “E”. Besides, the IC50 at BCAT2 [2] was more than 1 µM.
The like results for `CNc1cc2c(cn1)nc(-c1ccccc1F)n2[C@H]1C[C@H](O)C[C@@H](NC(=O)c2ncc(Cl)s2)C1` [Example 273, 5-chloro-N-((1S,3R,5R)-3-(2-(2-fluorophenyl)-6-(methylamino)-1H-imidazo[4,5-c]pyridin-1-yl)-5-hydroxycyclohexyl)thiazole-2-carboxamide] were, in that order, “E” and 0.5 to 1 µM.
On to `O=C(N[C@@H]1C[C@@H](O)C[C@H](n2c(-c3ccccc3F)nc3cnc(F)cc32)C1)c1ncc(Cl)s1` [Example 275, 5-chloro-N-((1S,3R,5R)-3-(6-fluoro-2-(2-fluorophenyl)-1H-imidazo[4,5-c]pyridin-1-yl)-5-hydroxycyclohexyl)thiazole-2-carboxamide], for which, at BCAT2 [1], the “BCAT2 Cell Inhibition” value is “E”. At BCAT2 [2], the half-inhibitory concentration (IC50) is more than 1 µM.
The like results for `COc1cc2c(cn1)nc(-c1ccccc1F)n2[C@H]1C[C@H](O)C[C@@H](NC(=O)c2ncc(Cl)s2)C1` [Example 277, 5-chloro-N-((1S,3R,5R)-3-(2-(2-fluorophenyl)-6-methoxy-1H-imidazo[4,5-c]pyridin-1-yl)-5-hydroxycyclohexyl)thiazole-2-carboxamide] were, in that order, “E” and more than 1 µM.
As for `CNC(=O)c1cc2nc(CC(C)C)n([C@H]3CCC[C@@H](NC(=O)c4ncc(Cl)s4)[C@@H]3O)c2cn1` [Example 279, 5-chloro-N-((1R,2S,3S)-2-hydroxy-3-(2-isobutyl-6-(methylcarbamoyl)-3H-imidazo[4,5-c]pyridin-3-yl)cyclohexyl)thiazole-2-carboxamide], at BCAT2 [1], the “BCAT2 Cell Inhibition” value is “E”. The same compound displayed a half-maximal inhibitory concentration (IC50) against BCAT2 [2] of more than 1 µM.
The corresponding values for `CNC(=O)c1ccc2c(c1)nc(-c1ccccn1)n2C1CC(O)CC(NC(=O)c2ncc(C(F)F)s2)C1` (stereo not drawn) [Example 294, 5-(difluoromethyl)-N-(3-hydroxy-5-(5-(methylcarbamoyl)-2-(pyridin-2-yl)-1H-benzo[d]imidazol-1-yl)cyclohexyl)thiazole-2-carboxamide] are “E” and 0.5 to 1 µM.
The corresponding values for `CC(C)Cc1nc2cnc(N3CCC[C@@H]3C(C)(C)O)cc2n1[C@@H]1CCC[C@H](NC(=O)c2ncc(Cl)s2)C1` [Example 304, 5-chloro-N-((1S,3R)-3-(6-((R)-2-(2-hydroxypropan-2-yl)pyrrolidin-1-yl)-2-isobutyl-1H-imidazo[4,5-c]pyridin-1-yl)cyclohexyl)thiazole-2-carboxamide] are “E” and more than 1 µM.
The corresponding values for `CC(C)Cc1nc2cnc(N3CCC[C@H]3C(N)=O)cc2n1[C@@H]1CCC[C@H](NC(=O)c2ncc(Cl)s2)C1` [Example 307, N-((1S,3R)-3-(6-((S)-2-carbamoylpyrrolidin-1-yl)-2-isobutyl-1H-imidazo[4,5-c]pyridin-1-yl)cyclohexyl)-5-chlorothiazole-2-carboxamide] are “E” and more than 1 µM.
Regarding `CC(C)Cc1nc2cnc(N3CCC[C@@H]3C(N)=O)cc2n1[C@@H]1CCC[C@H](NC(=O)c2ncc(Cl)s2)C1` [Example 308, N-((1S,3R)-3-(6-((R)-2-carbamoylpyrrolidin-1-yl)-2-isobutyl-1H-imidazo[4,5-c]pyridin-1-yl)cyclohexyl)-5-chlorothiazole-2-carboxamide], the “BCAT2 Cell Inhibition” value at BCAT2 [1] is given as “E”. Besides, on BCAT2 [2], the concentration for half-maximal inhibition (IC50) is more than 1 µM.
For `CC(C)Cc1nc2cnc(N3CCC[C@H]3C#N)cc2n1[C@@H]1CCC[C@H](NC(=O)c2ncc(Cl)s2)C1` [Example 309, 5-chloro-N-((1S,3R)-3-(6-((S)-2-cyanopyrrolidin-1-yl)-2-isobutyl-1H-imidazo[4,5-c]pyridin-1-yl)cyclohexyl)thiazole-2-carboxamide], the “BCAT2 Cell Inhibition” value on BCAT2 [1] is reported as “E”. The concentration for half-maximal inhibition (IC50) on BCAT2 [2] was more than 1 µM.
The like results for `CC(C)Cc1nc2cnc(N3CCC[C@@H]3C#N)cc2n1[C@@H]1CCC[C@H](NC(=O)c2ncc(Cl)s2)C1` [Example 310, 5-chloro-N-((1S,3R)-3-(6-((R)-2-cyanopyrrolidin-1-yl)-2-isobutyl-1H-imidazo[4,5-c]pyridin-1-yl)cyclohexyl)thiazole-2-carboxamide] were, in that order, “E” and more than 1 µM.
The like results for `CC(C)C(F)(F)c1nc2cnc(-c3ccccn3)cc2n1[C@@H]1CCC[C@H](NC(=O)c2ncc(Cl)s2)C1` [Example 318, 5-chloro-N-((1S,3R)-3-(2-(1,1-difluoro-2-methylpropyl)-6-(pyridin-2-yl)-1H-imidazo[4,5-c]pyridin-1-yl)cyclohexyl)thiazole-2-carboxamide] were, in that order, “E” and 0.5 to 1 µM.
`CC(C)Cc1nc2cnc(-n3cncn3)cc2n1[C@@H]1CCC[C@H](NC(=O)c2ncc(Cl)s2)C1` [Example 323, 5-chloro-N-((1S,3R)-3-(2-isobutyl-6-(1H-1,2,4-triazol-1-yl)-1H-imidazo[4,5-c]pyridin-1-yl)cyclohexyl)thiazole-2-carboxamide]: the results for the IC50 against BCAT2 [1] and against BCAT2 [2] were more than 1 µM and 0.1 to 0.5 µM, respectively.
Turning to `CC(C)Cc1nc2cnc(-c3ccccc3CC#N)cc2n1[C@@H]1CCC[C@H](NC(=O)c2ncc(Cl)s2)C1` [Example 333, 5-chloro-N-((1S,3R)-3-(6-(2-(cyanomethyl)phenyl)-2-isobutyl-1H-imidazo[4,5-c]pyridin-1-yl)cyclohexyl)thiazole-2-carboxamide], the “BCAT2 Cell Inhibition” value at BCAT2 [1] is “E”. For the same compound, at BCAT2 [2], the IC50 is more than 1 µM.
The corresponding values for `CC(C)Cc1nc2cnc(-c3ccccc3C#N)cc2n1[C@@H]1CCC[C@H](NC(=O)c2ncc(Cl)s2)C1` [Example 335, 5-chloro-N-((1S,3R)-3-(6-(2-cyanophenyl)-2-isobutyl-1H-imidazo[4,5-c]pyridin-1-yl)cyclohexyl)thiazole-2-carboxamide] are “E” and 0.1 to 0.5 µM.
For the compound `N#Cc1ccc(-c2nc3cnc(-c4nc[nH]n4)cc3n2[C@@H]2CCC[C@H](NC(=O)c3ccc(Cl)s3)C2)c(F)c1` [Example 353, 5-chloro-N-((1S,3R)-3-(2-(4-cyano-2-fluorophenyl)-6-(1H-1,2,4-triazol-3-yl)-1H-imidazo[4,5-c]pyridin-1-yl)cyclohexyl)thiophene-2-carboxamide], the IC50 on BCAT2 [1] and against BCAT2 [2] was more than 1 µM in each case.
Turning to `CC(C)Cc1nc2cnc(-n3cc(C(C)O)nn3)cc2n1[C@@H]1CCC[C@H](NC(=O)c2ncc(Cl)s2)C1` (stereo partly drawn) [Example 359, 5-chloro-N-((1S,3R)-3-(6-(4-(1-hydroxyethyl)-1H-1,2,3-triazol-1-yl)-2-isobutyl-1H-imidazo[4,5-c]pyridin-1-yl)cyclohexyl)thiazole-2-carboxamide], the “BCAT2 Cell Inhibition” value at BCAT2 [1] is “E”. In addition, on BCAT2 [2], the IC50 is 0.1 to 0.5 µM.
